Literature values, collected in patent US20180140599A1, “PREVENTION AND/OR TREATMENT OF CONTRAST-INDUCED ACUTE KIDNEY INJURY” (Saghmos Therapeutics, Inc., priority 2016, published 2018).

System: patients with high serum creatinine levels undergoing coronary angiography/angioplasty
Conditions: four published Phase 2 trials; compared with isotonic saline

With COc1ccc(CN2CCNCC2)c(OC)c1OC [Trimetazidine] as the compound, how does the “reducing the risk of contrast-induced nephropathy (CIN)” value read?
The value was “more effective than isotonic saline in reducing the risk of contrast-induced nephropathy (CIN)”.
